Measurements reported in patent US12121500B2, “Inhibitors of Bunyaviridae and uses thereof” (priority 2020, dated 2024).
In brackets after ≈: the same amount, converted by molar mass. Read-outs that look alike come from different tables or passages of the source.

Tests used:
[1] = tested on: Staphylococcus spp.; assay: Inhibition of Staphylococcus spp. growth, broth microdilution; type: cell-based, S. saprophyticus or S. aureus; conditions: 16-24 hours, Mueller-Hinton broth, — = no measurable MIC80; for MIC80: Staphylococcus
[2] = tested on: RVFV strain MP12; assay: microbe, parasite or virus in culture; type: cell-based, Rift Valley Fever Virus; conditions: for EC50: read-out: Estimated EC50
[3] = tested on: RVFV; assay: microbe, parasite or virus in culture; type: cell-based, Rift Valley Fever Virus
[4] = target: T1, human ribonuclease H1 (Homo sapiens, UniProt O60930); assay: biochemical; type: biochemical
T1 construct: made in house; host or cells: E. coli
T1 sequence (O60930 1-286): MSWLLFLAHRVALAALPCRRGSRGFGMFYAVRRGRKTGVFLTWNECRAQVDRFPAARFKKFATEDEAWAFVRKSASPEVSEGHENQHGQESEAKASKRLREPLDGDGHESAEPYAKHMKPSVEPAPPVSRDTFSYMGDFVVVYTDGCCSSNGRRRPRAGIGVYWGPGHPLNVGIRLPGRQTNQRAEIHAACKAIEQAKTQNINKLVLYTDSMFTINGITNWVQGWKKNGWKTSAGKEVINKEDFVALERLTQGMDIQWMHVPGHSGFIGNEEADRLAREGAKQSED

[5] = tested on: Escherichia coli; assay: Inhibition of Escherichia coli growth, broth microdilution; type: cell-based; conditions: 16-24 hours, Mueller-Hinton broth, — = inactive; for MIC80: Escherichia coli, read-out: E. coli (MIC80)
[6] = Cytotoxicity in HepDES19 cells, MTS assay; conditions: human, HepDES19 cells (HepG2-derived hepatoblastoma cell line)
[7] = Quantitative cytotoxicity in Vero cells, crystal violet staining of EC50 plates; conditions: African green monkey
[8] = tested on: C. neoformans; assay: Inhibition of C. neoformans growth, limiting dilution assay; type: cell-based, Cryptococcus neoformans; conditions: 48 hours at 35° C., YNB-02; for MIC80: Cryptococcus neoformans, read-out: C. neoformans (MIC80)
[9] = in vitro; conditions: African green monkey
[10] = tested on: HepDES19; assay: Cytotoxicity in HepDES19 cells, MTS assay; conditions: read-out: CC50 HepDES19; HepDES19 cells, 3 days, MTS; * marks limit value
[11] = tested on: Vero cells; assay: Quantitative cytotoxicity in Vero cells, crystal violet staining of EC50 plates; conditions: read-out: CC50 Vero, 1 day of compound exposure, crystal violet, * marks limit values
[12] = tested on: Vero cells
[13] = tested on: A549 cells
[14] = tested on: RVFV; assay: microbe, parasite or virus in culture; type: cell-based, Rift Valley Fever Virus; remark: listed apart in the source
[15] = in vitro; conditions: human
[16] = Rift Valley fever virus, Vero, 24 h, read-out: RVFV (EC50, μM)
[17] = Rift Valley fever virus, A549, 24 h

Row | SMILES | MIC80 [1] [µM] | EC50 ([2]; Rift Valley fever virus, Vero) [µM] | EC50 [3, 16] [µM] | IC50 [4] [µM] | MIC80 [5] [µM] | CC50 at 1 day [7] [µM] | MIC80 [8] [µM] | CC50 [9] [µM] | CC50 [10] [µM] | EC50 ([3]; read-out: RVFV (EC50)) [µM] | IC50 ([4]; read-out: Human RNaseH1 (IC50)) [µM] | Staphylococcus spp. (MIC80, μM) [1] | other results
1 | Cc1cc(O)c(=O)c(O)cc1C(=O)NCc1ccccc1 [Compound 388] | 67 (≈ 19.1 µg/mL) | 19 | 9 | 166 | 67 (≈ 19.1 µg/mL) | 239 | 11 (≈ 3.14 µg/mL) | – | – | – | – | – | activity against RVFV in the primary screen, in words [2]: active; CC50 at 3 days [6]: 19.8 µM
2 | CC(C)Sc1ccc(SC(C)C)c(O)c(=O)c1O [Compound 696] | 13 (≈ 3.72 µg/mL) | 12 | 6 | – | 20 (≈ 5.73 µg/mL) | 56.5 | 1.5 (≈ 0.43 µg/mL) | 118 | 14.1 | – | – | – | –
3 | Cc1ccc(/C=C/C(=O)c2ccccc(=O)c2O)cc1 [Compound 340] | – | – | – | – | – | – | – | – | 18.7 | 27.3 | > 500 | – | EC50 [2]: 3 µM; CC50 [11]: 70 µM; C. neoformans (MIC80, μM) [8]: 49 µM
4 | Cc1cc(O)c(=O)c(O)cc1C(=O)c1ccc(-c2ccncc2)cc1 [Compound 260] | – | – | 31.6 | 277 | – | > 250 | 50 (≈ 16.7 µg/mL) | – | – | – | – | poorly active or inactive | Human RNaseH1 (IC50, μM) [4]: poorly active or inactive; E. coli (MIC80, μM) [5]: poorly active or inactive; CC50 at 3 days [6]: 45 µM
5 | CCc1cccc(N=C(C)c2c(C)cc(=O)n(O)c2O)c1 [Compound 518] | – | – | – | – | – | – | – | – | 91.4 | 20 | 436 | 67 µM | EC50 [2]: 7 µM; CC50 [12]: ≥ 120 µM; CC50 [13]: 16.5 µM; EC50 ([14]; read-out: EC50): 17.2 µM; CC50 [11]: > 120 µM; C. neoformans (MIC80, μM) [8]: 24 µM
6 | Cc1cc(O)c(=O)c(O)cc1C(=O)c1cccs1 [Compound 308] | 44 (≈ 11.5 µg/mL) | 2 | 0.54 | – | 25 (≈ 6.56 µg/mL) | 217 | 11 (≈ 2.89 µg/mL) | 111 | – | – | 46 | – | CC50 [15]: 119 µM; EC50 [14, 17]: 8.36 µM; EC50 ([14]; Rift Valley fever virus, A549, 24 h, read-out: EC50 in A549 cells): 8.4 µM
7 | CC[C@H](C)[C@H](NC(=O)OCC1c2ccccc2-c2ccccc21)C(=O)Sc1cccccc1=O [Compound 686] | – | – | – | – | – | – | – | – | 42.6 | > 120 | > 500 | 30 µM | EC50 [2]: 2 µM; CC50 [12]: ≥ 120 µM; CC50 [13]: 67.6 µM; EC50 ([14]; read-out: EC50): 7.87 µM; CC50 [11]: > 120 µM; C. neoformans (MIC80, μM) [8]: 0.85 µM
8 | Cc1cc(O)c(=O)c(O)cc1C(=O)c1cccc(Br)c1 [Compound 359] | – | 4 | 5.1 | – | – | 170 | 24 (≈ 8.04 µg/mL) | – | 19.4 | – | – | – | –
9 | Cc1cc(O)c(=O)c(O)c(O)c1C(=O)c1ccc(-c2ccccc2)cc1 [Compound 362] | – | 6 | 2.6 | – | – | 77.8 | 24 (≈ 8.36 µg/mL) | – | 5.4 | – | 212 | – | E. coli (MIC80, μM) [5]: inactive
10 | Cc1cc(O)c(=O)c(O)cc1C(=O)Nc1ccccc1 [Compound 389] | 44 (≈ 11.9 µg/mL) | 16 | 8.8 | 309 | 44 (≈ 11.9 µg/mL) | > 250 | 3.5 (≈ 0.949 µg/mL) | – | – | – | – | good to moderate activity | activity against RVFV in the primary screen, in words [2]: active; Human RNaseH1 (IC50, μM) [4]: nearly inactive; E. coli (MIC80, μM) [5]: good to moderate activity; CC50 at 3 days [6]: 26.5 µM
11 | O=C(Cc1ccccc1)Sc1cccccc1=O [Compound 680] | – | – | – | – | – | – | – | – | 95.6 | > 120 | 652 | 13 µM | EC50 [2]: 0.3 µM; CC50 [12]: 0.9 µM; E. coli (MIC80, μM) [5]: 30 µM; CC50 [13]: ≥ 120 µM; EC50 ([14]; read-out: EC50): 11.6 µM; CC50 [11]: > 120 µM; C. neoformans (MIC80, μM) [8]: 0.40 µM
12 | Cc1cc(O)c(=O)c(O)cc1C(=O)N1CCN(C(c2ccc(F)cc2)c2ccc(F)cc2)CC1 [Compound 1017] | – | 3 | 8 | – | – | 54.7 | 6 (≈ 2.8 µg/mL) | ≥ 120 | 3.9 | – | – | – | –
13 | Cc1cc(O)c(=O)c(O)cc1C(=O)NC(CCC(=O)OC(C)(C)C)C(=O)OC(C)(C)C (stereo not drawn) [Compound 867] | – | 7 | 8.7 | > 500 | – | > 120 | 9 (≈ 3.94 µg/mL) | ≥ 120 | 5.2 | – | – | – | CC50 [15]: ≥ 120 µM; EC50 [14, 17]: 33 µM
14 | C/C(=N\c1ccc(Cl)c(Cl)c1)c1c(C)cc(O)n(O)c1=O [Compound 670] | – | 10 | 14 to 20 | – | – | > 120 | 69 (≈ 22.6 µg/mL) | ≥ 120 | 69 | 14 | 356 | – | CC50 [15]: ≥ 120 µM; EC50 [14, 17]: 15.3 µM
15 | Cc1cc(O)c(=O)c(O)cc1C(=O)c1ccccc1O [Compound 311] | 67 (≈ 18.2 µg/mL) | 3 | 11.6 | 26 | 30 (≈ 8.17 µg/mL) | > 250 | 15 (≈ 4.08 µg/mL) | 115 | – | – | – | – | –
16 | CCCCSc1ccc(SCCCC)c(O)c(=O)c1O [Compound 694] | 9 (≈ 2.83 µg/mL) | 6 | 3.7 | > 500 | – | 22.1 | 2.3 (≈ 0.723 µg/mL) | ≥ 120 | 1.8 | – | – | – | –
